Patent US11306092B2, “Amino indole compounds useful as TLR inhibitors” (BRISTOL-MYERS SQUIBB COMPANY, priority 2017, dated 2022)

What was measured:
human TLR9 = target: T1, human TLR9 (Homo sapiens, UniProt Q9NR96); assay: TLR9 inhibition reporter assay (HEK-Blue SEAP reporter); format: cell-based; conditions: HEK-Blue cells overexpressing human TLR9; ODN2006 5 nM; 22 hour incubation
T1 construct: host or cells: HEK-Blue cells
T1 sequence (Q9NR96 26-1032): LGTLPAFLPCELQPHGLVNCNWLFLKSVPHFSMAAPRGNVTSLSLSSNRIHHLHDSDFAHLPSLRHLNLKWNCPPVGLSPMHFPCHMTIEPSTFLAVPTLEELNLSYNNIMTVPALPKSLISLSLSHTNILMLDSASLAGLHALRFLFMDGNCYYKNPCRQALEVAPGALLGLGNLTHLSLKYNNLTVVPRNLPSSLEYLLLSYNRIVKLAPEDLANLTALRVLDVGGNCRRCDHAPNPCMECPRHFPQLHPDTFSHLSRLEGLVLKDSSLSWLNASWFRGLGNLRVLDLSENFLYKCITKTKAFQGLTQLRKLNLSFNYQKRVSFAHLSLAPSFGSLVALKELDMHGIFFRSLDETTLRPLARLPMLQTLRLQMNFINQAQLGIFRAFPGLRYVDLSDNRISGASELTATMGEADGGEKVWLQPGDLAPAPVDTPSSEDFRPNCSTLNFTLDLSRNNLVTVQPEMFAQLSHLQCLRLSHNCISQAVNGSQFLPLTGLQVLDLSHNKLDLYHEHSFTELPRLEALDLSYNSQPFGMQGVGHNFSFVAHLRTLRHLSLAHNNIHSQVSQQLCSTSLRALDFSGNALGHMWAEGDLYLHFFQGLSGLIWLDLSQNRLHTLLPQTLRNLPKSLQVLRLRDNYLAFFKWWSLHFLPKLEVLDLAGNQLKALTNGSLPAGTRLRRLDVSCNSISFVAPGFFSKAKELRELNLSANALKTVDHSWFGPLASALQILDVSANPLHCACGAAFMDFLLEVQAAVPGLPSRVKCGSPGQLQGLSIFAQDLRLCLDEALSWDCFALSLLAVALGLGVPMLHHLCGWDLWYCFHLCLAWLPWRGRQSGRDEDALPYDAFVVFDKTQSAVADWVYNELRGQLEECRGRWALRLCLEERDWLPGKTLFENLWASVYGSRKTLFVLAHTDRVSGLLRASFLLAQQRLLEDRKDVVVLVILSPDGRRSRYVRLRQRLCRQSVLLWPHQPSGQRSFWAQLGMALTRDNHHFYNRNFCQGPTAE
Experimental: (§1) TLR7/8/9 Inhibition Reporter Assays
(§2) HEK-Blue™-cells (Invivogen) overexpressing human TLR7, TLR8 or TLR9 receptors were used for screening inhibitors of these receptors using an inducible SEAP (secreted embryonic alkaline phosphatase) reporter gene under the control of the IFN-β minimal promoter fused to five NF-κB and AP-1-binding sites. Briefly, cells are seeded into Greiner 384 well plates (15000 cells per well for TLR7, 20,000 for TLR8 and 25,000 for TLR9) and then treated with test compounds in DMSO to yield a final dose response concentration range of 0.05 nM-50 μM. After a 30 minute compound pre-treatment at room temperature, the cells are then stimulated with a TLR7 ligand (gardiquimod at a final concentration of 7.5 μM), TLR8 ligand (R848 at a final concentration of 15.9 μM) or TLR9 ligand (ODN2006 at a final concentration of 5 nM) to activate NF-κB and AP-1 which induce the production of SEAP. After a 22 hour incubation at 37° C., 5% CO2, SEAP levels are determined with the addition of HEK-Blue™ Detection reagent (Invivogen), a cell culture medium that allows for detection of SEAP, according to manufacturer's specifications. The percent inhibition is determined as the % reduction in the HEK-Blue signal present in wells treated with agonist plus DMSO alone compared to wells treated with a known inhibitor.

human TLR7 = target: T2, human TLR7 (Homo sapiens, UniProt Q9NYK1); assay: TLR7 inhibition reporter assay (HEK-Blue SEAP reporter); format: cell-based; conditions: HEK-Blue cells overexpressing human TLR7; gardiquimod 7.5 μM; 22 hour incubation
T2 construct: host or cells: HEK-Blue cells
T2 sequence (Q9NYK1 27-1049): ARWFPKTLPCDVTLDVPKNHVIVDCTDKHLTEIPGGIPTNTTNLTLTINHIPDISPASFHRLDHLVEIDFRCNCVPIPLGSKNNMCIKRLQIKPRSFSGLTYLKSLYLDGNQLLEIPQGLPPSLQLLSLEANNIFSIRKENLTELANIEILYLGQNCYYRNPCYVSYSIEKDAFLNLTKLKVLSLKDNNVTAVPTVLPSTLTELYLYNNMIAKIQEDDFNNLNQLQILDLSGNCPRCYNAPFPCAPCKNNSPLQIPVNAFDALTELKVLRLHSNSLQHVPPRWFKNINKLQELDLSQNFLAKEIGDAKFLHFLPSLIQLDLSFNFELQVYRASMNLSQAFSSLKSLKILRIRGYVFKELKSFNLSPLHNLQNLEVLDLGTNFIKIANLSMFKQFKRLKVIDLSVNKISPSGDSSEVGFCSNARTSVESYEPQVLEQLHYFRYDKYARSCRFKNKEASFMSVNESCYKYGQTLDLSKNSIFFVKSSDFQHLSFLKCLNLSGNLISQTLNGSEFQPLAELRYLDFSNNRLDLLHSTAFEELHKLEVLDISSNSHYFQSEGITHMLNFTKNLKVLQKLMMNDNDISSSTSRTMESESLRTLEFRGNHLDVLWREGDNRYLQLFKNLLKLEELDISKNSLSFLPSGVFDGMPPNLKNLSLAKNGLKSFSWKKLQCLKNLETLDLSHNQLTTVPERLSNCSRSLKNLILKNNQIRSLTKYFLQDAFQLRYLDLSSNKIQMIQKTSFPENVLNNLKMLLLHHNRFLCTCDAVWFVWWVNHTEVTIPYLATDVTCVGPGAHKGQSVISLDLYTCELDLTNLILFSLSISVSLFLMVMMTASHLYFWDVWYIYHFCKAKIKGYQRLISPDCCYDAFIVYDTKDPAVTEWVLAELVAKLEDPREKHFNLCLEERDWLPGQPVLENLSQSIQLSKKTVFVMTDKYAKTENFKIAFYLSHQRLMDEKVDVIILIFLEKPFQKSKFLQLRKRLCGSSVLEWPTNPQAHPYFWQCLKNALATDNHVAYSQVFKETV
Experimental: as §1, §2

| Structure (SMILES) | IC50 (human TLR9) [nM] | IC50 (human TLR7) [nM] |
| --- | --- | --- |
| COc1ccc(-c2[nH]c3ccc(NC4CCC(N5CCN(CC(C)C)CC5)CC4)cc3c2C(C)C)cc1OC (centres unmarked) [Example 51, 2-(3,4-dimethoxyphenyl)-N-(4-(4-isobutylpiperazin-1-yl)cyclohexyl)-3-isopropyl-1H-indol-5-amine] | 1400 | 767 |
| COc1ccc(-c2[nH]c3ccc(NC4CCC(N5CCN(CC(C)C)CC5)CC4)cc3c2C(C)C)cc1OC (centres unmarked) [Example 52, 2-(3,4-dimethoxyphenyl)-N-(4-(4-isobutylpiperazin-1-yl)cyclohexyl)-3-isopropyl-1H-indol-5-amine] | 1580 | 403 |
| COc1ccc(-c2[nH]c3ccc(NC4CCC(N5CCN(CC(C)C)CC5)CC4)cc3c2C(C)C)cc1OC (centres unmarked) [Example 53, 2-(3,4-dimethoxyphenyl)-N-(4-(4-isobutylpiperazin-1-yl)cyclohexyl)-3-isopropyl-1H-indol-5-amine] | 1210 | 659 |
| COCCN1CCN(C2CCC(Nc3ccc4[nH]c(-c5ccc(OC)c(OC)c5)c(C(C)C)c4c3)CC2)CC1 (centres unmarked) [Example 54, 2-(3,4-dimethoxyphenyl)-3-isopropyl-N-(4-(4-(2-methoxyethyl)piperazin-1-yl)cyclohexyl)-1H-indol-5-amine] | 970 | 269 |
| COc1ccc(-c2[nH]c3ccc(NC4CCC(NCCCN5CCOCC5)CC4)cc3c2C(C)C)cc1OC (centres unmarked) [Example 55, N1-(2-(3,4-dimethoxyphenyl)-3-isopropyl-1H-indol-5-yl)-N4-(3-morpholinopropyl)cyclohexane-1,4-diamine] | 631 | 167 |
| COc1ccc(-c2[nH]c3ccc(NC4CCC(NCCCN5CCOCC5)CC4)cc3c2C(C)C)cc1OC (centres unmarked) [Example 56, N1-(2-(3,4-dimethoxyphenyl)-3-isopropyl-1H-indol-5-yl)-N4-(3-morpholinopropyl)cyclohexane-1,4-diamine] | 590 | 136 |
| COc1ccc(-c2[nH]c3ccc(NC4CCC(N5CCN(C6CCCC6)CC5)CC4)cc3c2C(C)C)cc1OC (centres unmarked) [Example 57, N-(4-(4-cyclopentylpiperazin-1-yl)cyclohexyl)-2-(3,4-dimethoxyphenyl)-3-isopropyl-1H-indol-5-amine] | 460 | 353 |
| COc1ccc(-c2[nH]c3ccc(NC4CCC(N5CCN(C6CCCC6)CC5)CC4)cc3c2C(C)C)cc1OC (centres unmarked) [Example 58, N-(4-(4-cyclopentylpiperazin-1-yl)cyclohexyl)-2-(3,4-dimethoxyphenyl)-3-isopropyl-1H-indol-5-amine] | 1080 | 351 |
| COc1ccc(-c2[nH]c3ccc(NC4CCC(N5CCN(CCN6CCCC6)CC5)CC4)cc3c2C(C)C)cc1OC (centres unmarked) [Example 63, 2-(3,4-dimethoxyphenyl)-3-isopropyl-N-(4-(4-(2-(pyrrolidin-1-yl)ethyl)piperazin-1-yl)cyclohexyl)-1H-indol-5-amine] | 405 | 257 |
| COc1ccc(-c2[nH]c3ccc(NC4CCC(N5CCN(CCN6CCCC6)CC5)CC4)cc3c2C(C)C)cc1OC (centres unmarked) [Example 64, 2-(3,4-dimethoxyphenyl)-3-isopropyl-N-(4-(4-(2-(pyrrolidin-1-yl)ethyl)piperazin-1-yl)cyclohexyl)-1H-indol-5-amine] | 555 | 357 |
| COc1ccc(-c2[nH]c3ccc(NC4CCC(N5CCN(Cc6ccc(C)cc6)CC5)CC4)cc3c2C(C)C)cc1OC (centres unmarked) [Example 65, 2-(3,4-dimethoxyphenyl)-3-isopropyl-N-(4-(4-(4-methylbenzyl)piperazin-1-yl)cyclohexyl)-1H-indol-5-amine] | 588 | 1180 |
| COc1ccc(-c2[nH]c3ccc(NC4CCC(N5CCN(Cc6ccc(C)cc6)CC5)CC4)cc3c2C(C)C)cc1OC (centres unmarked) [Example 66, 2-(3,4-dimethoxyphenyl)-3-isopropyl-N-(4-(4-(4-methylbenzyl)piperazin-1-yl)cyclohexyl)-1H-indol-5-amine] | 583 | 686 |
| COc1ccc(-c2[nH]c3ccc(NC4CCC(N5CCN(CCCN6CCCC6)CC5)CC4)cc3c2C(C)C)cc1OC (centres unmarked) [Example 67, 2-(3,4-dimethoxyphenyl)-3-isopropyl-N-(4-(4-(3-(pyrrolidin-1-yl)propyl)piperazin-1-yl)cyclohexyl)-1H-indol-5-amine] | 589 | 322 |
| COc1ccc(-c2[nH]c3ccc(N4CCC(NCCN(C)C)CC4)cc3c2C(C)C)cc1OC [Example 75, N1-(1-(2-(3,4-dimethoxyphenyl)-3-isopropyl-1H-indol-5-yl)piperidin-4-yl)-N2,N2-dimethylethane-1,2-diamine] | 3860 | 206 |
| COc1ccc(-c2[nH]c3ccc(N4CCC(N5CCN(C(C)=O)CC5)CC4)cc3c2C(C)C)cc1OC [Example 82, 1-(4-(1-(2-(3,4-dimethoxyphenyl)-3-isopropyl-1H-indol-5-yl)piperidin-4-yl)piperazin-1-yl)ethan-1-one] | 6560 | 114 |
| COc1ccc(-c2[nH]c3ccc(N4CCC(N5CCC(N(C)C)CC5)CC4)cc3c2C(C)C)cc1OC [Example 83, 1′-(2-(3,4-dimethoxyphenyl)-3-isopropyl-1H-indol-5-yl)-N,N-dimethyl-[1,4′-bipiperidin]-4-amine] | 1290 | 287 |
| COc1ccc(-c2[nH]c3ccc(N4CCC(N5CCN(CC6CC6)CC5)CC4)cc3c2C(C)C)cc1OC [Example 87, 5-(4-(4-(cyclopropylmethyl)piperazin-1-yl)piperidin-1-yl)-2-(3,4-dimethoxyphenyl)-3-isopropyl-1H-indole] | 9800 | 337 |
| COc1ccc(-c2[nH]c3ccc(N4CCC(N5CCCN(C(C)=O)CC5)CC4)cc3c2C(C)C)cc1OC [Example 88, 1-(4-(1-(2-(3,4-dimethoxyphenyl)-3-isopropyl-1H-indol-5-yl)piperidin-4-yl)-1,4-diazepan-1-yl)ethan-1-one] | 4640 | 69 |
| COc1ccc(-c2[nH]c3ccc(N4CCC(N5CCN(C6CCCC6)CC5)CC4)cc3c2C(C)C)cc1OC [Example 93, 5-(4-(4-cyclopentylpiperazin-1-yl)piperidin-1-yl)-2-(3,4-dimethoxyphenyl)-3-isopropyl-1H-indole] | 925 | 132 |
